Laboratory results: the supplement of paper PMC13380429

Experiments:
Details in all cases: 72 h
[1] = test system: HepG2; assay: cell viability relative to DMSO; higher = less toxic
[2] = test system: Vero E6; assay: as above
[3] = test system: Caco-2; assay: as above
[4] = test system: HepG2; assay: relative viability EC50 (midpoint between 100% and the lowest measured viability); higher = less toxic
[5] = test system: Vero E6; assay: as above
[6] = test system: Caco-2; assay: as above
[7] = test system: HepG2; assay: drug sensitivity score (DSS) for viability; higher = more toxic; extreme values may be limits of the assay
[8] = test system: Vero E6; assay: as above
[9] = test system: Caco-2; assay: as above
[10] = test system: U2OS; assay: cell viability relative to DMSO; higher = less toxic
[11] = test system: U2OS; assay: relative viability EC50 (midpoint between 100% and the lowest measured viability); higher = less toxic
[12] = test system: U2OS; assay: drug sensitivity score (DSS) for viability; higher = more toxic; extreme values may be limits of the assay
[13] = test system: Calu-3; assay: cell viability relative to DMSO; higher = less toxic
[14] = test system: Calu-3; assay: relative viability EC50 (midpoint between 100% and the lowest measured viability); higher = less toxic
[15] = test system: Calu-3; assay: drug sensitivity score (DSS) for viability; higher = more toxic; extreme values may be limits of the assay

| Compound | cell viability ([1]; 1 nM) [%] | cell viability ([1]; 10 nM) [%] | cell viability ([1]; 100 nM) [%] | cell viability ([1]; 1000 nM) [%] | cell viability ([1]; 10000 nM) [%] | cell viability ([2]; 1 nM) [%] | cell viability ([2]; 10 nM) [%] | cell viability ([2]; 100 nM) [%] | cell viability ([2]; 1000 nM) [%] | cell viability ([2]; 10000 nM) [%] | cell viability ([3]; 1 nM) [%] | cell viability ([3]; 10 nM) [%] | cell viability ([3]; 100 nM) [%] | cell viability ([3]; 1000 nM) [%] | cell viability ([3]; 10000 nM) [%] | relative viability EC50 [4] [µM] | relative viability EC50 [5] [µM] | relative viability EC50 [6] [µM] | drug sensitivity score [7] | drug sensitivity score [8] | drug sensitivity score [9] | cell viability ([10]; 1 nM) [%] | cell viability ([10]; 10 nM) [%] | cell viability ([10]; 100 nM) [%] | cell viability ([10]; 1000 nM) [%] | cell viability ([10]; 10000 nM) [%] | relative viability EC50 [11] [µM] | drug sensitivity score [12] | cell viability ([13]; 1 nM) [%] | cell viability ([13]; 10 nM) [%] | cell viability ([13]; 100 nM) [%] | cell viability ([13]; 1000 nM) [%] | cell viability ([13]; 10000 nM) [%] | relative viability EC50 [14] [µM] | drug sensitivity score [15] |
| --- | --- | --- | --- | --- | --- | --- | --- | --- | --- | --- | --- | --- | --- | --- | --- | --- | --- | --- | --- | --- | --- | --- | --- | --- | --- | --- | --- | --- | --- | --- | --- | --- | --- | --- | --- |
| NC(=O)CN1C=CCC(C(N)=O)=C1 [caricotamide] | 93.2 | 103 | 104 | 116 | 106 | 101 | 95.4 | 99.5 | 99 | 101 | 113 | 103 | 103 | 97.7 | 104 | > 10 | > 10 | > 10 | 0 | 0 | 0 |  |  |  |  |  |  |  |  |  |  |  |  |  |  |
| CC/C=C(\C(=O)N[C@@H]1C(=O)N2C(C(=O)OCOC(=O)C(C)(C)C)=C(COC(N)=O)CS[C@H]12)c1csc(N)n1 [cefcapene-pivoxil] | 107 | 93.8 | 89.7 | 78.8 | 86.4 | 109 | 94.7 | 110 | 111 | 102 | 104 | 101 | 117 | 113 | 94.4 | > 10 | > 10 | > 10 | 3.3 | 0 | 0 | 97.2 | 106 | 98.5 | 103 | 103 | > 10 | 0 |  |  |  |  |  |  |  |
| CO/N=C(\C(=O)N[C@@H]1C(=O)N2C(C(=O)O)=C(CSc3nc(=O)c(O)nn3C)CS[C@H]12)c1csc(N)n1 [ceftriaxone] | 93 | 96.7 | 96.5 | 97.3 | 97.9 | 96.6 | 102 | 96 | 106 | 95.5 |  |  |  |  |  | > 10 | > 10 |  | 0 | 0 |  | 100 | 94.2 | 94.5 | 95.7 | 97.2 | > 10 | 0 | 92.7 | 94.5 | 95.2 | 92 | 105 | > 10 | 0 |
| C/C(=C\c1csc(C)n1)[C@@H]1C[C@@H]2O[C@]2(C)CCC[C@H](C)[C@H](O)[C@@H](C)C(=O)C(C)(C)[C@@H](O)CC(=O)O1 [epothilone-B] | 52.3 | 29.7 | 18.4 | 19.8 | 32 | 77.6 | 48.9 | 29.9 | 35.7 | 45.4 | 79.8 | 54.2 | 47.6 | 52.8 | 50.6 | < 0.001 | 0.0026 | 0.0016 | 37.2 | 29.5 | 24 | 50.3 | 39.9 | 23.9 | 30.7 | 44.3 | < 0.001 | 33.1 | 91.8 | 66 | 53.8 | 54.7 | 59.3 |  | 19 |
| C=C1CC[C@H](O)C/C1=C/C=C1\CCC[C@]2(C)[C@@H]([C@H](C)/C=C/[C@H](C)C(C)C)CC[C@@H]12 [ergocalciferol] | 114 | 99.3 | 112 | 97.5 | 93 | 102 | 105 | 96.2 | 93.6 | 101 |  |  |  |  |  | > 10 | > 10 |  | 0 | 0 |  | 99.3 | 99.6 | 96.2 | 100 | 94.3 | > 10 | 0 | 86.5 | 89.2 | 80.2 | 108 | 104 | > 10 | 0 |
| CC(C)OC(=O)CNC(=O)[C@H](CS)NC(=O)CC[C@H](N)C(=O)O [glutathione-monoisopropyl-ester] | 102 | 103 | 105 | 101 | 97.3 | 99.3 | 103 | 99.5 | 99.7 | 100 | 95.7 | 103 | 96.2 | 103 | 96.3 | > 10 | > 10 | > 10 | 0 | 0 | 0 |  |  |  |  |  |  |  |  |  |  |  |  |  |  |
| NC(=O)CCCCC1CCSS1 (stereo unspecified) [lipoamide] | 88.4 | 108 | 104 | 102 | 90.9 | 103 | 99.2 | 102 | 106 | 99.2 | 110 | 90.3 | 92.4 | 97.9 | 102 | > 10 | > 10 | > 10 | 0 | 0 | 0 | 102 | 99.8 | 99.1 | 98.2 | 98 | > 10 | 0 |  |  |  |  |  |  |  |
| CN1C(=O)CC(C)(c2ccccc2)C1=O (stereo unspecified) [methsuximide] | 98.2 | 94.4 | 101 | 100 | 104 | 96.1 | 97.1 | 98.7 | 96.1 | 95.2 | 97.5 | 102 | 99.1 | 105 | 96.7 | > 10 | > 10 | > 10 | 0 | 0 | 0 | 97.1 | 101 | 94 | 96.6 | 91.2 | > 10 | 0 |  |  |  |  |  |  |  |
